{"source": "patent US11472782B2", "about": "“RIP1 inhibitory compounds and methods for making and using the same” (priority 2018, dated 2022)", "origin": "cited, not measured here", "test_system": "TNF-alpha induced hypothermia", "conditions": "mouse, dose of 30 mg/kg, according to WO 2014/125444"}
{"smiles": "CN1C(=O)[C@@H](NC(=O)c2nnc(Cc3ccccc3)[nH]2)COc2ccccc21", "note": "[comparative compound, (S)-5-benzyl-N-(5-methyl-4-oxo-2,3,4,5-tetrahydrobenzo[b][1,4]oxazepin-3-yl)-4H-1,2,4-triazole-3-carboxamide]", "values": [{"measurement": "inhibition of TNF-alpha induced hypothermia", "value": 93, "unit": "%"}]}
